From patent US7244718B2, “Water soluble prodrugs of hindered alcohols” (University of Kansas, priority 1998, dated 2007)

Assay: Stability of the isolated free acid on standing at room temperature
Type: physicochemical
Conditions: isolated free acid (oil)
Experimental: To a solution of o-phosphonooxymethylpropofol dibenzyl ester (115 mg, 0.245 mmol) in methanol (10 mL) was added palladium on carbon (10%, 20 mg). This mixture was stirred under an atmosphere of hydrogen (1 atm) for 1.5 hour.
To a solution of O-phosphonooxymethyl-alpha-tocopherol dibenzyl ester (88 mg, 0.12 mmol) in tetrahydrofuran (10 mL) was added palladium on carbon (10%, 15 mg). The mixture was stirred under an atmosphere of hydrogen (1 atm) for 10 minutes (the reaction was complete after 5 minutes as judged by TLC). The catalyst was removed by filtration through Celite, the filtrate was evaporated at reduced pressure, and then dried in vacuo.

| SMILES | stability at room temperature |
| --- | --- |
| Cc1c(C)c2c(c(C)c1OCOP(=O)(O)O)CCC(C)(CCCC(C)CCCC(C)CCCC(C)C)O2 (stereo not drawn) [IIb, O-phosphonooxymethyl-alpha-tocopherol] | unstable at room temperature |
| CC(C)c1cccc(C(C)C)c1OCOP(=O)(O)O [Id, O-phosphonooxymethylpropofol] | unstable on standing at room temperature |
